This passage reports IC50 and Activity results from ChEMBL document CHEMBL4024782, “Structure-Guided Synthesis and Mechanistic Studies Reveal Sweetspots on Naphthyl Salicyl Hydrazone Scaffold as Non-Nucleosidic Competitive, Reversible Inhibitors of Human Ribonucleotide Reductase” (J Med Chem, 2018).

The target of assay [1] is T1, Ribonucleoside-diphosphate reductase large subunit (Homo sapiens, UniProt P23921).
T1 sequence (P23921 whole entry): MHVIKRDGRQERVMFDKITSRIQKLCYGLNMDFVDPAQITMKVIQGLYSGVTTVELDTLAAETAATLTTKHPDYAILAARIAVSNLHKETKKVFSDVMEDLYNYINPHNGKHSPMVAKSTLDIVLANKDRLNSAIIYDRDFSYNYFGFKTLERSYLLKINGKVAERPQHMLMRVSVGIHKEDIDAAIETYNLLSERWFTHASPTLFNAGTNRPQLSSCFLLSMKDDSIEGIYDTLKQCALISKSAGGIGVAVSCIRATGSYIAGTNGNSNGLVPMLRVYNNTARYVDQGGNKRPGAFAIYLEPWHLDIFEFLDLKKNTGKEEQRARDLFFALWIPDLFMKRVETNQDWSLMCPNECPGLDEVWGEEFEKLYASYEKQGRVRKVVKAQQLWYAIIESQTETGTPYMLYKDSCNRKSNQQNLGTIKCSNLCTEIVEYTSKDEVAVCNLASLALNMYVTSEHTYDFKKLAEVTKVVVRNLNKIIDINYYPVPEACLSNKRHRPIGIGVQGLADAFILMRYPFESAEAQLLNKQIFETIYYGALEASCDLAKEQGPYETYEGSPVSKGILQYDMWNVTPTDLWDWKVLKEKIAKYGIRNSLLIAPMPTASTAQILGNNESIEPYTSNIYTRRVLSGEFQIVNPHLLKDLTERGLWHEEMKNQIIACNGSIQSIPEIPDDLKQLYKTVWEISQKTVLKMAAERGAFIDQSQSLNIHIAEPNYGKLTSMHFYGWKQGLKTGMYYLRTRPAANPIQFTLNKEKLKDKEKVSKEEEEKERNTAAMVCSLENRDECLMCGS
The assay can be described thus: Inhibition of human RRM1 expressed in Escherichia coli BL21-codon plus(DE3)-RIL using [14C]-ADP as substrate after 3 mins by liquid scintillation counting method.

In assay [2] the test system is MDA-MB-231. The experiment in a line: cells. The note with it: Homo sapiens, MDA-MB-231, 72 h.
For assay [3], the target named is T2, Ribonucleoside-diphosphate reductase subunit M2 (Homo sapiens, UniProt P31350).
T2 sequence (P31350 whole entry): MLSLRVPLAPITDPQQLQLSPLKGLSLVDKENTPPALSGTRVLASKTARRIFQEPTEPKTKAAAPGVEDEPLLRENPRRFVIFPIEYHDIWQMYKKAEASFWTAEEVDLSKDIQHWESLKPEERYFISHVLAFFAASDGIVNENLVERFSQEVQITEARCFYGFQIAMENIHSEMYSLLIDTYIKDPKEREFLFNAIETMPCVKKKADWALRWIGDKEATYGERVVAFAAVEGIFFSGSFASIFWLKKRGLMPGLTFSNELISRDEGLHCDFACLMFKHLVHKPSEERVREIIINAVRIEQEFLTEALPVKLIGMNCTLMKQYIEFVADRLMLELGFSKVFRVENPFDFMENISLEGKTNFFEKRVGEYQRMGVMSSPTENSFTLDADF
The assay can be described thus: Inhibition of human RRM2 expressed in Escherichia coli BL21-codon plus(DE3) using [14C]-ADP as substrate after 3 mins by liquid scintillation counting method.

The test system of assay [4] is MDA-MB-231. The assay can be described thus: cells. The settings on record: Homo sapiens, MDA-MB-231, 120 h.
Assay [5] is described as follows: Metal chelating activity in pH 7 ammonium acetate buffer assessed as Fe2+-compound complex formation at compound to metal ratio of 1:4 to 1:50 under anaerobic condition by UV spectroscopic method. The format is functional.
Assay [6] concerns MDA-MB-231. The experiment in a line: cells. The settings on record: Homo sapiens, MDA-MB-231, 120 h. The source holds these as a separate data set.
A short description of assay [7]: Metal chelating activity in pH 7 ammonium acetate buffer assessed as Fe3+-compound complex formation at compound to metal ratio of 1:1 to 1:50 under anaerobic condition by UV spectroscopic method. The format is functional.
The test system of assay [8] is MDA-MB-231. The assay can be described thus: cells. The settings on record: Homo sapiens, MDA-MB-231, 120 h. The source holds these as a separate data set.
Assay [9] has as its system MDA-MB-231. The experiment in a line: cells. The note with it: Homo sapiens, MDA-MB-231, 120 h. The source holds these as a separate data set.
Assay [10] in a line: Metal chelating activity in pH 7 ammonium acetate buffer assessed as Mg2+-compound complex formation at compound to metal ratio of 1:1 to 1:10 under anaerobic condition by UV spectroscopic method. The class given is functional.

Molecules are shown by their SMILES. Calls of active or inactive are those of the source. The calls are words filed in the database; no cut-off is given here.

The IC50 is the concentration needed to halve the response being measured. Turning to `O=S(=O)(Cc1ccccc1)N/N=C/c1c(O)ccc2ccccc12`, the IC50 in [1] amounted to 131000 nM.

In the case of `O=C(N/N=C/c1c(O)ccc2ccccc12)OCc1ccccc1`, in assay [1], the IC50 came out at 120000 nM.

For `COc1cc(/C=N/N=C/c2c(O)ccc3ccccc23)ccc1O`, the IC50 in assay [1] came to 687000 nM.

For `Nc1ccn([C@@H]2O[C@H](CO)[C@@H](O)C2(F)F)c(=O)n1` [GEMCITABINE], the IC50 in [2] is 30 to 100 nM.

With `O=C(N/N=C/c1c(O)ccc2ccccc12)c1ccccc1O`, the IC50 was 123000 nM in assay [3]; 1490 nM in assay [4]; 1940 nM in assay [6]; 1430 nM in [8]; 347 nM in assay [9]. In [5], the result was Active. Also, the result in [7] and in assay [10] was inactive.

Consider `NC(=S)N/N=C/c1ncccc1N` [TRIAPINE], for which the IC50 in assay [3] is 185 nM.
